Laboratory results published in US12496304B2, “Selective glucocorticoid receptor modifiers for treating impaired skin wound healing” (AKRIBES BIOMEDICAL GMBH, priority 2019, dated 2025).
Read-outs that look alike come from different tables or passages of the source.

Key:
[1] = tested on: primary human dermal fibroblasts (HDF); experiment: Fibroblast proliferation assay (2D) in the presence of wound exudate; format: cell-based; details: for fibroblast proliferation (2D) with wound exudate: graded concentrations
Experimental: (§1) Primary human dermal fibroblasts (HDF) were purchased from CELLnTEC, Bern. They were routinely grown in Dulbecco's modified Eagle's medium (DMEM) containing 10% FCS, 2 mM glutamine, and 100 U/ml penicillin/100 μg/ml streptomycin. Media, antibiotics, and glutamine were bought from Lonza. The cells were used at passage 5-15. Cells were trypsinized and seeded at 2500 cells/well in 30 μl into the inner wells of 384-well plates in the absence or presence of graded compound concentrations with or without different dilutions of sterile-filtered WE in medium. For control samples, 30 μl medium was added instead of specific stimuli. The outer wells were loaded with sterile water. The cells were incubated for 72 hours at 37° C.
(§2) At the end of the incubation period, supernatants were removed for the determination of IL-1β, and the cells were fixed with 4% paraformaldehyde (Morphisto) for 15 minutes at room temperature and washed 3 times with PBS. A control plate was fixed after the overnight adherence of the cells (day 1) to determine the starting cell number.
Total cellular protein was determined as a measure of cell number by staining the fixed cells with sulforhodamine B (SRB, Sigma). A 0.4% SRB solution in 1% acetic acid was added to the wells for 30 minutes. The wells were then washed with 1% acetic acid until the wash solution remained colorless. After drying, the dye was eluted with 10 mM Tris-HCl, pH8.5, and absorbance was measured either at 550 or 492 nm for lower and higher cell densities, respectively. The average absorbance of the sample representing the day 1 starting cell number was subtracted from the absorbance values of the WE-treated cells.
All experiments were carried out in triplicate for each sample and concentration, and means±standard deviation (SD) were used for the evaluation of the experiment. Results are expressed as percentage of control values for unstimulated cells.

IL-1β = IL-1β secretion into the supernatant in the fibroblast proliferation assay (ELISA); format: cell-based, human; details: graded concentrations
Experimental: as §1, §2
IL-1β levels were determined with a commercial ELISA kit. The amount of IL-1β contained in the wound exudate added to the cells was subtracted from the total IL-B in the supernatants in order to determine the cytokine secreted by the cells.

[2] = tested on: human dermal fibroblast (HDF) cells; experiment: Fibroblast-derived matrix formation (FDM) assay, 3D fibroblast culture; format: cell-based; details: for formation of fibroblast-derived matrix (3D): WE from patient #92 (FIG. 12)
Experimental: Human dermal fibroblast (HDF) cells were seeded at 1250 cells/well on day −3 into 384-well tissue culture plates, which had been pre-coated for 1 hour at 37° C. with 0.2% gelatin solution (Sigma). When the cells reached confluence (=day 0), a matrix promoting supplement (vitamin C: 2-phospho-L-ascorbic acid trisodium salt, 100 μg/ml; Sigma) was added together with test samples containing TGF-β1 or graded concentrations of compounds −/+WE as described for the HDF proliferation assay. After 4 days, medium was replaced by fresh vitamin C—and stimulus—as well as compound-containing medium, maintaining the conditions initiated on day 0. TGF-β1 was included as a positive control to promote FDM formation. After a total incubation time of 7 to 8 days, FDM production was measured in fixed cultures via SRB staining and evaluated as described above. In some cases, the experiment was stopped and evaluated already on day 4.

glucocorticoid receptor = biological target: T1, glucocorticoid receptor (Homo sapiens, UniProt P04150); details: for localization of the glucocorticoid receptor: 45 minutes at 37° C.
T1 sequence (P04150 1-777): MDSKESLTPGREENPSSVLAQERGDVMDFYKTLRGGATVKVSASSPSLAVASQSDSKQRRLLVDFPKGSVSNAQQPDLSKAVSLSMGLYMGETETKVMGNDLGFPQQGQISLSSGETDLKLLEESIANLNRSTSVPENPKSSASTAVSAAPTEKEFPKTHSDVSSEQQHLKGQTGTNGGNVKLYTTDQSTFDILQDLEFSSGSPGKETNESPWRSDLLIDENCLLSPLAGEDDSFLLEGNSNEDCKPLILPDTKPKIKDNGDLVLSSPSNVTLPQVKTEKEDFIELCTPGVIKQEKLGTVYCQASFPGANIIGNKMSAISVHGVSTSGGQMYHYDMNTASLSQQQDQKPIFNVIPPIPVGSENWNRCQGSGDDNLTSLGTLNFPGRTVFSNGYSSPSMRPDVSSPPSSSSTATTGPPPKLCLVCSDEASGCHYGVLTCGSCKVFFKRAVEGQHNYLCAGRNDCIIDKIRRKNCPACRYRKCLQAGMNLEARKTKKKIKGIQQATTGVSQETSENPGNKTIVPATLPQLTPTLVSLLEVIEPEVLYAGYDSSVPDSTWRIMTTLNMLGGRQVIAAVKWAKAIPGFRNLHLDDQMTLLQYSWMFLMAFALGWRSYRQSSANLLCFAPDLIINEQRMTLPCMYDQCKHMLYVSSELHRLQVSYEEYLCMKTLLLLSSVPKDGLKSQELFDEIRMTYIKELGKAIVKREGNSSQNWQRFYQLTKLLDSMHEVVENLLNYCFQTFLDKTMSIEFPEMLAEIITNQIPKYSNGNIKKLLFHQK

IL-8 [3] = experiment: Primary human monocyte cytokine secretion assay (spontaneous IL-8); format: cell-based; details: 16 hours (FIG. 16B)
Experimental: Primary human monocytes were prepared from peripheral blood mononuclear cells (PBMC). PBMC were isolated from buffy coats obtained from the Red Cross, Vienna, using LymphoPrep (Technoclone). 30 ml of buffy concentrate was diluted 1:2 with PBS, gently underlayered with 15 ml Lymphoprep in a 50 ml Falcon tube and centrifuged for 25 minutes at 1800 rpm at 21° C. The interphase was carefully transferred to a new Falcon tube and filled up to 50 ml with ice cold PBS. After another centrifugation step (10 minutes, 1200 rpm, 4° C.), the cell pellet was washed 3 times with PBS, resuspended in RPMI medium containing 20% FCS and 10% DMSO and frozen in liquid nitrogen. Monocytes were generated from frozen aliquots using positive selection with the CD14 Beads-Kit (Miltenyi) on an autoMACS-Sorter (Miltenyi) according to the manufacturer's instructions.
Cells were seeded at 8×10^5/ml in 50 μl/well of a 384-well plate and combined cells with graded concentrations of test compounds. After 16 hours, the supernatants were transferred to fresh plates and frozen at −20° C. for IL-8 analysis, using a commercial ELISA kit.

IL-8 [4] = experiment: U937 cell stimulation assay (LPS-induced IL-8); format: cell-based, human; details: LPS 100 ng/ml, 16 hours (FIG. 16A)
Experimental: The human monocytic cell line U937 (ATCC CRL 1593) was routinely grown in RPMI_1640 supplemented by 10% FCS and 2 mM glutamine, and 100 U/ml penicillin/100 μg/ml streptomycin. Cells were seeded at 4×10^5/ml in 50 μl/well of a 384-well plate and combined cells with graded concentrations of test compounds and LPS at 100 ng/ml. After 16 hours, the supernatants were transferred to fresh plates and frozen at −20° C. for IL-8 analysis, using a commercial ELISA kit.

Row | Compound | fibroblast proliferation (2D) with wound exudate ([1]; WE-1 (FIG. 2A, 9A)) | fibroblast proliferation (2D) with wound exudate ([1]; WE-2 (FIG. 10A)) | fibroblast proliferation (2D) with wound exudate ([1]; WE-3 (FIG. 11A)) | IL-1β secretion into the supernatant (IL-1β; WE-1 (FIG. 2B, 9B)) | IL-1β secretion into the supernatant (IL-1β; WE-2 (FIG. 10B)) | IL-1β secretion into the supernatant (IL-1β; WE-3 (FIG. 11B)) | formation of fibroblast-derived matrix (3D) [2] | localization of the glucocorticoid receptor (glucocorticoid receptor; 1 nM) | localization of the glucocorticoid receptor (glucocorticoid receptor; 100 nM) | localization of the glucocorticoid receptor (glucocorticoid receptor; 10 nm) | localization of the glucocorticoid receptor (glucocorticoid receptor; 0.1 nM) | also measured
1 | Cc1noc(=O)c2ccc(NC(=O)C(O)(CC(C)(C)c3cccc4c3OCC4)C(F)(F)F)cc12 (centres unmarked) [ZK216348] | dose-dependent partial reversion of the wound exudate (WE)-induced inhibition of fibroblast proliferation | dose-dependently reversed inhibition of wound exudate (WE)-induced fibroblast proliferation | dose-dependently reversed inhibition of wound exudate (WE)-induced fibroblast proliferation | inhibited IL-1β secretion at the same concentrations | inhibition of IL-1β secretion was negligible | inhibited IL-1β secretion at the same concentrations | positive effect |  |  |  |  | rescue of fibroblasts in 2D culture from wound-exudate-induced inhibition of proliferation, compared with HY14234 ([1]; FIGS. 9A, 10A, 11A): less efficient
2 | CCOC[C@]12Cc3cnn(-c4ccc(F)cc4)c3C=C1CCN(S(=O)(=O)c1ccc(C(F)(F)F)cc1)C2 [CORT108297] |  |  |  |  |  |  |  | N/C | N | N |  | 
3 | CC#C[C@]1(O)CC[C@H]2[C@@H]3CCC4=CC(=O)CCC4=C3[C@@H](c3ccc(N(C)C)cc3)C[C@@]21C [mifepristone] |  |  |  |  |  |  |  |  |  |  |  | effect on the matrix-promoting activity of BI-653048 ([2]; mifepristone 1 μM, WE-1 (FIG. 4)): completely abrogated
4 | CC(C)(C[C@@](O)(Cc1cc2ccncc2[nH]1)C(F)(F)F)c1cc(F)ccc1O [HY14234] | dose-dependent partial reversion of the wound exudate (WE)-induced inhibition of fibroblast proliferation | dose-dependently reversed inhibition of wound exudate (WE)-induced fibroblast proliferation | dose-dependently reversed inhibition of wound exudate (WE)-induced fibroblast proliferation | inhibited IL-1β secretion at the same concentrations | inhibition of IL-1β secretion was negligible | inhibited IL-1β secretion at the same concentrations | found to be active | N | N | N | N/C | spontaneous IL-8 secretion in human monocytes (IL-8 [3]): inhibited both LPS-induced and spontaneous IL-8 secretion; LPS-induced IL-8 secretion in U937 cells (IL-8 [4]): inhibited both LPS-induced and spontaneous IL-8 secretion
5 | C[C@H](NC(=O)C(C)(F)F)[C@H](Oc1ccc2c(cnn2-c2cccc(C(=O)NC3CCOC3)c2)c1)c1ccc2c(c1)OCCO2 (stereo partly drawn) [AZD7594, 3-(5-((1R,2S)-2-(2,2-difluoropropanamido)-1-(2,3-dihydrobenzo[b][1,4]dioxin-6-yl)propoxy)-1H-indazol-1-yl)-N-(tetrahydrofuran-3-yl)benzamide] |  |  |  |  |  |  | most active of the SEGRM tested in 3D culture | N | N | N | N/C | fibroblast proliferation, % proliferation of respective WE control ([1]; 1 μM, WE-02, WE control set to 100%): 196%; fibroblast proliferation, % proliferation of respective WE control ([1]; 1 μM, WE-03, WE control set to 100%): 161%; fibroblast proliferation, % proliferation of respective WE control ([1]; 1 μM, WE-04, WE control set to 100%): 1139%; fibroblast proliferation, % proliferation of respective WE control ([1]; 1 μM, WE-05, WE control set to 100%): 203%; fibroblast proliferation, % proliferation of respective WE control ([1]; 1 μM, WE-37, WE control set to 100%): 171%; fibroblast proliferation, % proliferation of respective WE control ([1]; 1 μM, WE-77, WE control set to 100%): 128%; efficacy on fibroblast proliferation compared with mapracorat ([1]; 1 μM, plurality of different wound exudates): comparable to the effect of mapracorat
6 | C[C@H]1C[C@H]2[C@@H]3CCC4=CC(=O)C=C[C@]4(C)[C@@]3(F)[C@@H](O)C[C@]2(C)[C@@]1(O)C(=O)CCl [Clobetasol] |  |  |  |  |  |  |  |  |  |  |  | glucocorticoid receptor localization, positive control (glucocorticoid receptor): shows nuclear staining
